Tests used:
Type in all cases: cell-based
AR protein = biological target: T1, AR protein (Homo sapiens, UniProt P10275); test: AR protein degradation in VCaP cells (Western blot); settings: 8h
T1 construct: AR-positive human prostate cancer cells VCaP (cell source: ATCC); host or cells: VCaP
T1 sequence (P10275 1-920): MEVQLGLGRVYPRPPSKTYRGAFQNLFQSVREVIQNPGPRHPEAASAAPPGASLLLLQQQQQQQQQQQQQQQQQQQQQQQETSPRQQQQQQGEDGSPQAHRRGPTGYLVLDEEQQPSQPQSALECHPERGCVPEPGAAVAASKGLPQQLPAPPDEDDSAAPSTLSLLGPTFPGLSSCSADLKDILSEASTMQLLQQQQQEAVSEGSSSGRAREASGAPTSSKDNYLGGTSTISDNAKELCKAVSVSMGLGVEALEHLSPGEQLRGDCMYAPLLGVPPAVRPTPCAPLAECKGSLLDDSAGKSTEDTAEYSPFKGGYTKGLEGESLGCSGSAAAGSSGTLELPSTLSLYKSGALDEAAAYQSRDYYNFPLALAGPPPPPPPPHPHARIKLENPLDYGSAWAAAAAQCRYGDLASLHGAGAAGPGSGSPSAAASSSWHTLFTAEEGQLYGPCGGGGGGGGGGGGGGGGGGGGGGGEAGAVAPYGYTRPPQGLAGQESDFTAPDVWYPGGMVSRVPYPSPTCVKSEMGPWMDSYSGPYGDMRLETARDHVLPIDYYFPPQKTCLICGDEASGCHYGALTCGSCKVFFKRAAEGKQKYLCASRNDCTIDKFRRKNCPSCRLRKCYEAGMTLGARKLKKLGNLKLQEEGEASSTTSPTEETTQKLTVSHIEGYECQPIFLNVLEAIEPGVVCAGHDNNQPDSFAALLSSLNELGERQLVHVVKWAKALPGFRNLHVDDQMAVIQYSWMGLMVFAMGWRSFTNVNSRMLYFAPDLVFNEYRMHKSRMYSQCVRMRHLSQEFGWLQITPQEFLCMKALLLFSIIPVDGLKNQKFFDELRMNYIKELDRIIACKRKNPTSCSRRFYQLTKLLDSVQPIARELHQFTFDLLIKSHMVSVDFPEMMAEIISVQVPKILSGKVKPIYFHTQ
Protocol: AR-positive human prostate cancer cells VCaP (cell source: ATCC) were cultured in DMEM (GiBco catalog number 11995-065) containing 10% FBS (Hyclone catalog number SH30406.05), and the cells were inoculated in a six-well microplate (Thermo catalog number 140675) at a density of 3 × 10^5 cells/well. After being cultured overnight in a carbon dioxide incubator (ESCO), the prepared compound of the present invention and the positive control sample ARV-766 (energy chemical) solution of different concentrations were added at a volume of 1 µL/well to make the final concentrations of the compound and the positive control sample reach 5nM and 0.5nM, respectively. At the same time, the corresponding solvent control was set and cultured for 8h. After 8h of culture, the culture medium was removed, and the cells were washed with PBS. RIPA lysis buffer containing 1% Protease Inhibitor Cocktail was added. After lysis and centrifugation, a total protein extract was obtained, and the protein concentration in the extract was detected by BCA method. Protein electrophoresis was performed using SDS-PAGE, and then the protein was transferred to a PVDF (Millipore Sigma catalog number PSRP010R5) membrane at a constant voltage of 100V for 60min. The PVDF membrane was placed in a 5% milk powder 1×TBST solution and blocked at room temperature for 1h. The primary antibody solution (Anti-Androgen receptor, Cell Signaling Technology catalog number: 5153S; 1:2000 dilution) was prepared and incubated at 4°C overnight. The primary antibody solution was discarded and the PVDF membrane was washed with 1×TBST for 5 minutes each time, three times. The secondary antibody solution (Thermo catalog number SA5-35571; 1:7500 dilution) was prepared and incubated at room temperature for 1 hour. The secondary antibody solution was discarded and the PVDF membrane was washed with 1×TBST for 5 minutes each time, three times. A dual-color infrared laser imaging system (Licor catalog number Odyssey CLX) was used for Western membrane imaging. The Image Studio software was used to analyze the grayscale of the bands. GAPDH protein bands were also detected for each sample as an internal reference. The AR protein degradation rate of the compound and the positive control sample was calculated based on the grayscale of the protein bands. Among them, "A" means degradation rate ≥ 50%, "B" means 50%> degradation rate ≥ 20%, "C" means 20% degradation rate ≥ 10%, and "D" means degradation rate less than 10%.

TNFα = test: LPS-induced TNFα secretion by PBMC (HTRF detection); settings: Homo sapiens, hPBMC, 20 hours compound then LPS 200 ng/mL for 5 hours, read-out: IC50 (inhibition of LPS-induced TNFα)
Protocol: (§1) After thawing, cryopreserved hPBMC (FPB003F-C, Shanghai OriBiotech) cells were resuspended in RPMI 1640 medium (30-2001,ATCC) containing 10% inactivated FBS (10099141C, Gibco) and cultured overnight at 37°C and 5% CO2. The next day, hPBMC cells were seeded in a 96-well cell culture plate at a density of 2 × 10^5 cells/well/100 µL (2 × 10^6 cells/mL), and 100 µL of compound in dimethyl sulfoxide solution (final concentration 0.0064-2500 nM) was added. […] The cell plate was placed in a 37°C, 5% CO2 incubator for 5 hours, and then centrifuged at 1000 rpm for 15 minutes. 100 µL of cell supernatant was collected from each well for cytokine concentration testing, which was tested immediately or frozen at -80°C for testing.
The TNFα concentration in the supernatant of LPS-induced THP-1 cells was determined using the TNF […] detection kit (62[…], PerkinElmer).
TNFα standard solutions of varying concentrations were prepared according to the product instructions, ranging from 0 to 2500 pg/mL. Equal volumes of Eu Cryptate antibody (1×) and d2 antibody (1×) were used to prepare the antibody mixture. 16 µL of standard solution or sample supernatant and 4 µL of the antibody mixture were added to each well of a 384-well white plate. The mixture was centrifuged at 800 rpm for 1 minute and incubated at room temperature for 2 hours. The absorbance at 620 nm and […] was read using a microplate reader (SPARK m1000pro, TECAN). A standard curve was plotted using the signal values of each TNFα standard solution. The TNFα concentration in each sample was determined based on the corresponding concentration of the signal value on the standard curve. The inhibitory rate of the compound on LPS-induced TNFα expression in THP-1 cell supernatants at different drug concentrations was calculated based on the TNFα concentration. The inhibition rate data were plotted in GraphPad Prism 8.0 software, and the IC50 value was calculated. Inhibition Rate = [1−(OD(Sample)−OD(Blank))/(OD(Control)−OD(Blank))] × 100% [formula] Table 9: Degradation effect of example compounds on IRAK4 in PBMC cells

IL-6 = test: LPS-induced IL-6 secretion by hPBMC (ELISA); settings: Homo sapiens, 20 h compound then LPS 200 ng/mL for 5 h; for inhibition at […]: 2500nM, read-out: Inhibition Rate of IL-6 (2500nM)
Protocol: as §1, with “OriBiotech.)” for “OriBiotech)”, “(30-2001, ATCC)” for “(30-2001,ATCC)”, “h,” for “hours,”, “min.” for “minutes.”, “awhich” for “which”
The IL-6 concentration in the supernatant of hPBMC cells induced by LPS was determined using a Human IL-6 ELISA kit (D6050, RD).
IL-6 standard solutions of varying concentrations were prepared according to the product instructions, ranging from 0 to 300 pg/mL. 100 µL of Assay Diluent RD1W and 100 µL of standard solution or sample supernatant were added to a pre-coated ELISA plate and incubated at room temperature for 2 hours. After washing the plate four times with 1× wash buffer, then 200 µL of Human IL-6 Conjugate was added and incubated at room temperature for 2 hours. After washing the plate four times with 1× wash buffer, then 200 µL of Substrate Solution was added and incubated at room temperature for 20 minutes. Finally, 50 µL of Stop Solution was added to terminate the reaction. The absorbance at 450 nm and 570 nm were read using a microplate reader (SPARK m1000pro, TECAN). The standard curve was plottd by the signal value of each concentration of IL-6 standard solution, and the IL-6 concentration in each sample was determined according to the corresponding concentration of the signal value of each well on the standard curve. The inhibition rate of the compound on LPS-induced IL-6 in the hPBMC cell supernatant at different drug concentrations was calculated according to the IL-6 concentration. The inhibition rate data were plotted in GraphPad Prism 8.0 software to calculate the IC50 value. Inhibition Rate = [1−(OD(sample)−OD(blank))/(OD(control)−OD(blank))] × 100% [formula] Table 10: Inhibitory effect of Example compounds on LPS-induced IL-6 secretion by hPBMC

Row | Structure (SMILES) | Degradation rate of AR protein in VCAP cells (AR protein; 0.5 nM) | Degradation rate of AR protein in VCAP cells (AR protein; 5 nM) | IC50 (TNFα) | inhibition at […] (IL-6) | inhibition at 0.02 µM (IL-6; 20nM, read-out: Inhibition Rate of IL-6 (20nM))
1 | C[C@H]1CC2(CCN(c3ccc(C(=O)N4CCC(F)(CN5CCC6(CC5)COc5cc(N7CCC(=O)NC7=O)ccc56)CC4)cc3)CC2)CN1c1ccc(C#N)c(Cl)c1 [A-P-265, (S)-2-chloro-4-(8-(4-(4-((6-(2,4-dioxotetrahydropyrimidin-1(2H)-yl)-2H-spiro[benzofuran-3,4'-piperidine]-1'-yl)methyl)-4-fluoropiperidine-1-carbonyl)phenyl)-3-methyl-2,8-diazaspiro[4.5]dec-2-yl)benzonitrile] | B (50%> degradation rate ≥ 20%) | A (degradation rate ≥ 50%) | – | – | –
2 | O=C1CCN(c2ccc3c(c2)CC2(CO3)CN(CC3CCN(C(=O)C4CCC(n5cc(NC(=O)c6cnn7ccc(N8CC9CC8CO9)nc67)c(C(F)F)n5)CC4)CC3)C2)C(=O)N1 (centres unmarked) [IR-P-6] | – | – | 95.6 nM | 65% | –
3 | O=C1CCN(c2ccc3c(c2)CC2(CCN(CC4CCN(C(=O)C5CCC(n6cc(NC(=O)c7cnn8ccc(N9CC%10CC9CO%10)nc78)c(C(F)F)n6)CC5)CC4)CC2)O3)C(=O)N1 (centres unmarked) [IR-P-7] | – | – | – | 46% | –
4 | Cn1c(=O)n(C2CCC(=O)NC2=O)c2cccc(C#CCOC3CCN(C[C@H]4CC[C@H](n5cc(NC(=O)c6cnn7ccc(N8C[C@H]9C[C@@H]8CO9)nc67)c(C(F)F)n5)CC4)CC3)c21 (some centres unmarked) [KT-474, reference compound] | – | – | 52.3 nM | 85% | 63%

From patent EP4806892A1, “CEREBLON E3 UBIQUITIN LIGASE INHIBITOR” (GAN & LEE PHARMACEUTICALS CO., LTD., priority 2023, dated 2025)
